These results are taken from patent publication US9770451B2, “Composition including ATM inhibitor for reducing cellular senescence and use of the composition” (Samsung Electronics Co., Ltd., priority 2014, dated 2017).

What all share (type): cell-based, human
Assay [1] deals with progeria senescent fibroblasts (passage 17). Nature of the assay: ROS measurement (MitoSOX Red). The note with it: CP-466722 0.1 μM. How it is done: ROS was measured according to the protocol of the manufacturer using a 0.2 μM MitoSOX™ Red reagent (Invitrogen, M36008). In detail, 2 μL of the reagent that was stored in a 1,000-fold concentration was added to a 2 ml medium sufficiently enough to cover the cultured cells that were attached to a coverslip. While being protected from light, the cells were further incubated at a temperature of 37° C. for 30 minutes. The cultured cells were irradiated with a wavelength of 520 nm by using a FACSCaliber (Beckton Dickinson), and then, measured with radiation emitted from a wavelength of 580 nm. The results were analyzed using Cell Quest 3.2 software (Beckton Dickinson). FIG. 12 is a graph showing results of measuring ROS (A) and mitochondrial membrane potential (B) of the progeria senescent fibroblasts (passage 17) that were cultured in the presence of an ATM-kinase inhibitor KU-60019 (0.5 μM).
ROS was measured according to the protocol of the manufacturer using a 0.2 μM MitoSOX™ Red reagent (Invitrogen, M36008). […] The cultured cells were irradiated with a wavelength of 520 nm by using a FACSCaliber (Beckton Dickinson), and then, measured with radiation emitted from a wavelength of 580 nm. The results were analyzed using Cell Quest 3.2 software (Beckton Dickinson).

The test system is the same in assay [2]. The assay can be described thus: Mitochondrial membrane potential (JC-1). Conditions: CP-466722 0.1 μM. How it is done:
The mitochondrial activity potential (i.e., mitochondrial membrane potential) was measured according to the protocol of the manufacturer of the MitoProbe™ JC-1 assay kit for flow cytometry (Life technologies: T3168). […] Consequently, mitochondrial depolarization is indicated by a decrease in the red/green fluorescence intensity ratio. The cultured cells were analyzed by flow cytometry by using an FACSCaliber (Beckton Dickinson) using excitation at a wavelength of 488 nm, and band-pass emission light filters at a wavelength of 530/30 nm and 585/42 nm. The results were analyzed using Cell Quest 3.2 software (Beckton Dickinson). FIG. 12 is a graph showing results of measuring mitochondrial activity potential (B) of the cultured cells. […]
The mitochondrial activity potential (i.e., mitochondrial membrane potential) was measured according to the protocol of the manufacturer using the MitoProbe™ JC-1 assay kit for flow cytometry (Life technologies: T3168). […] Consequently, mitochondrial depolarization is indicated by a decrease in the red/green fluorescence intensity ratio. The cultured cells were analyzed by flow cytometry by using an FACSCaliber (Beckton Dickinson) using excitation at a wavelength of 488 nm, and band-pass emission light filters at a wavelength of 530/30 nm and 585/42 nm. The results were analyzed using Cell Quest 3.2 software (Beckton Dickinson).

Assay [3] has the same test system. The assay can be described thus: DNA comet assay. Conditions: CP-466722 0.1 μM, 4 weeks. How it is done: To determine the extent of recovery of the senescent cells to the DNA damage in accordance with the ATM-kinase inhibitor, the DNA comet assay (Trevigen, 4250-050-K) was carried out according to the protocol of the manufacturer. The principle of the DNA comet assay is based on gel electrophoresis. The damaged DNA moves farther away in the electrophoresis process than the undamaged DNA, resulting in the formation of a comet-tail shape. Afterwards, a slide used herein was stained with cyber green (SYBR Green), so that the tail length of the DNA fragment was measured by using fluorescence microscopy to confirm the extent of the DNA damage. The extent of the DNA damage may be measured as a tail moment value obtained by multiplying tail DNA % by the distance of migration of DNA fragmentation from the nucleus or the tail length. […]
To determine the extent of recovery of the senescent cells to the DNA damage in accordance with the ATM-kinase inhibitor, the DNA comet assay (Trevigen, 4250-050-K) was carried out according to the protocol of the manufacturer. […] Afterwards, a slide used herein was stained with cyber green (SYBR Green), so that the tail length of the DAN fragment was measured by using fluorescence microscopy to confirm the extent of the DNA damage. […]

Structures are written as SMILES.

As for `COc1cc2ncnc(-n3nc(-c4ccccn4)nc3N)c2cc1OC` [CP-466722, 2-(6,7-dimethoxyquinazolin-4-yl)-5-(pyridin-2-yl)-2H-1,2,4-triazol-3-amine], the “amount of ROS vs control” value in assay [1] is listed as “significantly decreased”. In addition, in assay [2], the “mitochondrial activity potential vs control” value is on record as “significantly increased”. In addition, the “DNA damage (tail moment) vs DMSO control” value in assay [3] is given as “significantly decreased”.
